{
  "source": "paper PMC4979471",
  "about": "(Cell Death Discovery, 2015)",
  "experiment_in_all_cases": "Kinase selectivity, P33-radiolabeled assay",
  "assay_type_in_all_cases": "biochemical",
  "conditions_in_all_cases": "10 μM ATP",
  "key": {"CDK7/cyclin H": {"biological_target": "T1, CDK7/cyclin H (Homo sapiens, UniProt P50613)", "T1 construct": "purchased Reaction Biology Corp", "T1 sequence (P50613 whole entry)": "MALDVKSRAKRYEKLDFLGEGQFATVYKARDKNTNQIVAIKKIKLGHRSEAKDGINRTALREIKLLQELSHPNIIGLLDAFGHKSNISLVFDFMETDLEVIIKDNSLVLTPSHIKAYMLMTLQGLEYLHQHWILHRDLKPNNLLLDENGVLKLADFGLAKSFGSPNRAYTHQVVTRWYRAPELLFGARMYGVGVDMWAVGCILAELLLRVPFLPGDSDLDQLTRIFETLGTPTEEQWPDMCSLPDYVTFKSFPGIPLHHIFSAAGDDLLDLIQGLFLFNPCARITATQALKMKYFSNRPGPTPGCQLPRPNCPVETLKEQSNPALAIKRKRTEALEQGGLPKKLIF", "T1 sequence (P51946 whole entry partner)": "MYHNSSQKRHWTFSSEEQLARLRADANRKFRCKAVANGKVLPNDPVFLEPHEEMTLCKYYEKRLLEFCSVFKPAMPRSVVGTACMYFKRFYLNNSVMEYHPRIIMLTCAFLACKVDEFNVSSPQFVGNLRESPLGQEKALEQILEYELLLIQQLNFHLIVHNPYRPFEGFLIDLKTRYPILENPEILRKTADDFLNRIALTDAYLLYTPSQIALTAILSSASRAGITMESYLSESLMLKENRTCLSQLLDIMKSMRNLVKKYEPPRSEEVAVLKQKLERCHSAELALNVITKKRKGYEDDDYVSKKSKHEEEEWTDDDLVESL", "T1 sequence (P51948 whole entry partner)": "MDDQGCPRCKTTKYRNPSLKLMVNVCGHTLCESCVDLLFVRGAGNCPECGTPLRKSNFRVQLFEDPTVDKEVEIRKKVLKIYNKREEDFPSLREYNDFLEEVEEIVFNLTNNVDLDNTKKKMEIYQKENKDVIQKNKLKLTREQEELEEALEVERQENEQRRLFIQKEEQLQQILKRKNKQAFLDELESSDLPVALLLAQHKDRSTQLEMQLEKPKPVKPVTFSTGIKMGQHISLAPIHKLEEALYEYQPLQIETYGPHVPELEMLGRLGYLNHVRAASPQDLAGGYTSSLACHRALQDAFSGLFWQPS", "in_short": "(§1)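 Reactions contained 10 μM ATP and 10 μM test compound, each run in duplicate. Kinase activity is expressed as a percentage of DMSO-treated controls.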"}, "HIPK2": {"biological_target": "T2, HIPK2 (Homo sapiens, UniProt Q9H2X6)", "T2 construct": "purchased Reaction Biology Corp", "in_short": "as §1"}, "FAK/PTK2": {"biological_target": "T3, FAK/PTK2 (Homo sapiens, UniProt Q05397)", "T3 construct": "purchased Reaction Biology Corp", "in_short": "as §1"}, "Aurora A": {"biological_target": "T4, Aurora A (Homo sapiens, UniProt O14965)", "T4 construct": "purchased Reaction Biology Corp", "T4 sequence (O14965 1-403)": "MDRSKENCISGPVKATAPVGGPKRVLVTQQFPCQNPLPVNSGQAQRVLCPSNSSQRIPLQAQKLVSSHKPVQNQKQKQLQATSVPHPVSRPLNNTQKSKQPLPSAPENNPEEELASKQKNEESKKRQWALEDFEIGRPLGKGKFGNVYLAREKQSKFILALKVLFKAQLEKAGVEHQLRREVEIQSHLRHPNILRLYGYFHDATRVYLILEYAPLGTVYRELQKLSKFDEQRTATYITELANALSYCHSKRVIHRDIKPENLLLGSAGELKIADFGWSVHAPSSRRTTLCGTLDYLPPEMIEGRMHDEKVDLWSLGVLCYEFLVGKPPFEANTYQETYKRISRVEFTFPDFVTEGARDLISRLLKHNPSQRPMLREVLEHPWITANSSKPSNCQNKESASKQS", "in_short": "as §1"}, "JAK1": {"biological_target": "T5, JAK1 (Homo sapiens, UniProt P23458)", "T5 construct": "purchased Reaction Biology Corp", "T5 sequence (P23458 whole entry)": "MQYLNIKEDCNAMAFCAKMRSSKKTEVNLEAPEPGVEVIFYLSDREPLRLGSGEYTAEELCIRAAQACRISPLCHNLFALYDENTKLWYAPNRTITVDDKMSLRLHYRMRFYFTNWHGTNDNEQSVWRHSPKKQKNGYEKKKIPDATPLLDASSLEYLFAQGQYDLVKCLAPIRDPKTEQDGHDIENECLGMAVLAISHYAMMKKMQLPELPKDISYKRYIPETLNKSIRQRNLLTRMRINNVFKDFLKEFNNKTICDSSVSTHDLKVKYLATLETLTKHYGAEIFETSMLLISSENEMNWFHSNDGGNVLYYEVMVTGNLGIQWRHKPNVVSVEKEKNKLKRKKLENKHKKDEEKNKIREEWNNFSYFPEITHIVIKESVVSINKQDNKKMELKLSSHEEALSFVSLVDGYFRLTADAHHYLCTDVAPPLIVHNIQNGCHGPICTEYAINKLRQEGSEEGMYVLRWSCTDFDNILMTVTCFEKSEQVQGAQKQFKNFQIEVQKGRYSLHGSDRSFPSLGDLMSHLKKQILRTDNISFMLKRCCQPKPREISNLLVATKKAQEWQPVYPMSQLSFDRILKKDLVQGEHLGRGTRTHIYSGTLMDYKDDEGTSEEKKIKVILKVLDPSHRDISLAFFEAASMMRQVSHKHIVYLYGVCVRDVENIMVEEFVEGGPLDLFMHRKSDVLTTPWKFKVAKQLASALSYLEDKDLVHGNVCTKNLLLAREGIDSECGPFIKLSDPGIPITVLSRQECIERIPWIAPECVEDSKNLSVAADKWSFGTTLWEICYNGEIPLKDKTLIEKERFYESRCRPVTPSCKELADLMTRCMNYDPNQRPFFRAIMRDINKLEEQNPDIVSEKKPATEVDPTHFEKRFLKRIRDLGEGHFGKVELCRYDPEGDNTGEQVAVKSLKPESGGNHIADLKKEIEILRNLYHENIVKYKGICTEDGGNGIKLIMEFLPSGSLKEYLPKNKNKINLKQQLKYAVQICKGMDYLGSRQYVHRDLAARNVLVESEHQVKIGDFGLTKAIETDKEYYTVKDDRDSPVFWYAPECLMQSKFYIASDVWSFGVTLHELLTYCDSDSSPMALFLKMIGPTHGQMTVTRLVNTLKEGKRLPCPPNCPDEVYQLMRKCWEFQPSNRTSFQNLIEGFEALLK", "in_short": "as §1"}, "CDK5/p25": {"biological_target": "T6, CDK5/p25 (Homo sapiens, UniProt Q00535)", "T6 construct": "purchased Reaction Biology Corp", "T6 sequence (Q00535 whole entry)": "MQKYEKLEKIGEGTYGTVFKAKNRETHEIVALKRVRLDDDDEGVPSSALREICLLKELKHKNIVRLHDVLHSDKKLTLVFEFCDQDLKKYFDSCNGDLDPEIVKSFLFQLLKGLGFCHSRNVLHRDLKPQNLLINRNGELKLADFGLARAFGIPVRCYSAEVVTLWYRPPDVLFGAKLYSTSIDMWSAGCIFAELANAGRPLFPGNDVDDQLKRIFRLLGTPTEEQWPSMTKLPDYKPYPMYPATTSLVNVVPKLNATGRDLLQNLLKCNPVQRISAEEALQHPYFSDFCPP", "T6 sequence (Q15078 99-307 partner limits assumed)": "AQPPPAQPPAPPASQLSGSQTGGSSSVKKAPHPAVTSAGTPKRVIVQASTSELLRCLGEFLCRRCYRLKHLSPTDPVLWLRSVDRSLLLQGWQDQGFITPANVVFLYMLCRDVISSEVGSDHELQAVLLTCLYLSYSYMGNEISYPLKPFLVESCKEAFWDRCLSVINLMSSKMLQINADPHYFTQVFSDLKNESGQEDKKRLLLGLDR", "in_short": "as §1"}, "SRPK2": {"biological_target": "T7, SRPK2 (Homo sapiens, UniProt P78362)", "T7 construct": "purchased Reaction Biology Corp", "T7 sequence (P78362 whole entry)": "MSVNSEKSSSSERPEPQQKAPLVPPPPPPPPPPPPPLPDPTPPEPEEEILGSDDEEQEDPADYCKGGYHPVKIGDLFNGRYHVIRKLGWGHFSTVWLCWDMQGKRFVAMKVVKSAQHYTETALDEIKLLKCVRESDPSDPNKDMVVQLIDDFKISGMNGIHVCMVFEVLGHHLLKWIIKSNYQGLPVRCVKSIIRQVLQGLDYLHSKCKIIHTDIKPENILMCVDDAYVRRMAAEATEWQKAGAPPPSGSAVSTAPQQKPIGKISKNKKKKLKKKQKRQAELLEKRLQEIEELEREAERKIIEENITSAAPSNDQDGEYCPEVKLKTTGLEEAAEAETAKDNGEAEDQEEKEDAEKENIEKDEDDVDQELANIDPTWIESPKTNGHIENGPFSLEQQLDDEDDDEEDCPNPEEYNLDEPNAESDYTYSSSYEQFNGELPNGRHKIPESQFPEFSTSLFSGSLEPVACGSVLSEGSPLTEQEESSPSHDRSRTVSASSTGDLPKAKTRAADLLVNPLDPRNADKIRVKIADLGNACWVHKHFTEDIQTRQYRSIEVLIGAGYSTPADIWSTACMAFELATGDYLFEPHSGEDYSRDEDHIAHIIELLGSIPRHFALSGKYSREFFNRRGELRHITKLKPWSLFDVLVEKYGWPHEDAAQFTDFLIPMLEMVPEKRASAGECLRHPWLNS", "in_short": "as §1"}, "CK1g1": {"biological_target": "T8, CK1g1 (Homo sapiens, UniProt Q9HCP0)", "T8 construct": "purchased Reaction Biology Corp", "in_short": "as §1"}, "PKCa": {"biological_target": "T9, PKCa (Homo sapiens, UniProt P17252)", "T9 construct": "purchased Reaction Biology Corp", "in_short": "as §1"}, "PKCb1": {"biological_target": "T10, PKCb1 (Homo sapiens, UniProt P05771)", "T10 construct": "purchased Reaction Biology Corp", "in_short": "as §1"}, "TNK1": {"biological_target": "T11, TNK1 (Homo sapiens, UniProt Q13470)", "T11 construct": "purchased Reaction Biology Corp", "T11 sequence (Q13470 1-666)": "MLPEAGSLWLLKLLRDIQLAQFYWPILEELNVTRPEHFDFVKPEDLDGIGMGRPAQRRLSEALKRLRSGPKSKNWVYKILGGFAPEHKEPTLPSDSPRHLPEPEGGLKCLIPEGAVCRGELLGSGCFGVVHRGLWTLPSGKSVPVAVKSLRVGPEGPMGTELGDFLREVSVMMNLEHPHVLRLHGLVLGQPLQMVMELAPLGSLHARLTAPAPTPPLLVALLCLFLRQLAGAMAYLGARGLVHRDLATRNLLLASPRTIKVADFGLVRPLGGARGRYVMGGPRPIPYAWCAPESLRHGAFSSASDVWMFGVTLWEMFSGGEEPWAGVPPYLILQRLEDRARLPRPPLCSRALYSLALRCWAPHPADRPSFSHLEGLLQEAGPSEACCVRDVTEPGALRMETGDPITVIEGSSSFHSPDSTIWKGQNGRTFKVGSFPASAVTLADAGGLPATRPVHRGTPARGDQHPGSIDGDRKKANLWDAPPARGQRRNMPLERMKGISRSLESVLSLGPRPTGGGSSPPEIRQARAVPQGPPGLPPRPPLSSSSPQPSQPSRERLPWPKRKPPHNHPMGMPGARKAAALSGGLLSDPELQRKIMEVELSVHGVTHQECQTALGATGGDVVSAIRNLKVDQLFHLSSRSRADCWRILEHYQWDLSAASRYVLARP", "in_short": "as §1"}, "CAMK1b": {"biological_target": "T12, CAMK1b (Homo sapiens, UniProt Q6P2M8)", "T12 construct": "purchased Reaction Biology Corp", "T12 sequence (Q6P2M8 whole entry)": "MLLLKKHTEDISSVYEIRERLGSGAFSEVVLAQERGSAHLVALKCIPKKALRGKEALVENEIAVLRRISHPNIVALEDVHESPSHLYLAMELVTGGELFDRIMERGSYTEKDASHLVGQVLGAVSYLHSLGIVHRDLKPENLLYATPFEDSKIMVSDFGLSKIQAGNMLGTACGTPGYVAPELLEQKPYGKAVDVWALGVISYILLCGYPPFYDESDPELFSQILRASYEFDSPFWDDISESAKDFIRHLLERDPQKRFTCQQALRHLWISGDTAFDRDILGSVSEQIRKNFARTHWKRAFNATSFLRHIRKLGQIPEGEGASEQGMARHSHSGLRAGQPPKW", "in_short": "as §1"}, "CAMK1g": {"biological_target": "T13, CAMK1g (Homo sapiens, UniProt Q96NX5)", "T13 construct": "purchased Reaction Biology Corp", "T13 sequence (Q96NX5 whole entry)": "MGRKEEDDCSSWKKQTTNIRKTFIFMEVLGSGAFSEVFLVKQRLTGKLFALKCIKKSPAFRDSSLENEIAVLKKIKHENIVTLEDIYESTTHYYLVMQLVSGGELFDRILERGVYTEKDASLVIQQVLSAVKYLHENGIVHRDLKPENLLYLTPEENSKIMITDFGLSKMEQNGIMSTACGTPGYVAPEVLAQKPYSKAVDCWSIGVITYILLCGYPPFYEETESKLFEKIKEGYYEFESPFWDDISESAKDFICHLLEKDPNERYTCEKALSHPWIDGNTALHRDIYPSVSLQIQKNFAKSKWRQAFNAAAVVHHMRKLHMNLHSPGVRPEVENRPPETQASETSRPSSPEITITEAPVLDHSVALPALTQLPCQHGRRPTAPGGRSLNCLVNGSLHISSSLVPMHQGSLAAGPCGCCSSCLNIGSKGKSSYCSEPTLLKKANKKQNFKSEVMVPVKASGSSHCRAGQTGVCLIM", "in_short": "as §1"}, "[1]": {"conditions": "read-out: % Enzyme Activity (relative to DMSO controls) AVG"}, "[2]": {"conditions": "read-out: % Enzyme Activity (relative to DMSO controls) Data 1"}, "[3]": {"conditions": "read-out: % Enzyme Activity (relative to DMSO controls) Data 2"}},
  "note": "Where two headings read alike, the source gives them in different places.",
  "data": [
    {"smiles": "CC(C)(C)C(=O)N1N=CC[C@H]1c1ccccc1", "note": "[GSK′963]", "values": [
      {"measurement": "remaining activity at 10 µM", "setting": "CDK7/cyclin H; [1]", "result": 96.7, "unit": "%"},
      {"measurement": "remaining activity at 10 µM", "setting": "CDK7/cyclin H; [2]", "result": 98.8, "unit": "%"},
      {"measurement": "remaining activity at 10 µM", "setting": "CDK7/cyclin H; [3]", "result": 94.6, "unit": "%"},
      {"measurement": "remaining activity at 10 µM", "setting": "HIPK2; [1]", "result": 103, "unit": "%"},
      {"measurement": "remaining activity at 10 µM", "setting": "HIPK2; [2]", "result": 101, "unit": "%"},
      {"measurement": "remaining activity at 10 µM", "setting": "HIPK2; [3]", "result": 104, "unit": "%"},
      {"measurement": "remaining activity at 10 µM", "setting": "FAK/PTK2; [1]", "result": 101, "unit": "%"},
      {"measurement": "remaining activity at 10 µM", "setting": "FAK/PTK2; [2]", "result": 101, "unit": "%"},
      {"measurement": "remaining activity at 10 µM", "setting": "FAK/PTK2; [3]", "result": 101, "unit": "%"},
      {"measurement": "remaining activity at 10 µM", "setting": "Aurora A; [1]", "result": 102, "unit": "%"},
      {"measurement": "remaining activity at 10 µM", "setting": "Aurora A; [2]", "result": 101, "unit": "%"},
      {"measurement": "remaining activity at 10 µM", "setting": "Aurora A; [3]", "result": 102, "unit": "%"},
      {"measurement": "remaining activity at 10 µM", "setting": "JAK1; [1]", "result": 98.8, "unit": "%"},
      {"measurement": "remaining activity at 10 µM", "setting": "JAK1; [2]", "result": 97.9, "unit": "%"},
      {"measurement": "remaining activity at 10 µM", "setting": "JAK1; [3]", "result": 99.8, "unit": "%"},
      {"measurement": "remaining activity at 10 µM", "setting": "CDK5/p25; [1]", "result": 97, "unit": "%"},
      {"measurement": "remaining activity at 10 µM", "setting": "CDK5/p25; [2]", "result": 98.1, "unit": "%"},
      {"measurement": "remaining activity at 10 µM", "setting": "CDK5/p25; [3]", "result": 95.8, "unit": "%"},
      {"measurement": "remaining activity at 10 µM", "setting": "SRPK2; [1]", "result": 102, "unit": "%"},
      {"measurement": "remaining activity at 10 µM", "setting": "SRPK2; [2]", "result": 102, "unit": "%"},
      {"measurement": "remaining activity at 10 µM", "setting": "SRPK2; [3]", "result": 102, "unit": "%"},
      {"measurement": "remaining activity at 10 µM", "setting": "CK1g1; [1]", "result": 108, "unit": "%"},
      {"measurement": "remaining activity at 10 µM", "setting": "CK1g1; [2]", "result": 111, "unit": "%"},
      {"measurement": "remaining activity at 10 µM", "setting": "CK1g1; [3]", "result": 105, "unit": "%"},
      {"measurement": "remaining activity at 10 µM", "setting": "PKCa; [1]", "result": 96.9, "unit": "%"},
      {"measurement": "remaining activity at 10 µM", "setting": "PKCa; [2]", "result": 95.7, "unit": "%"},
      {"measurement": "remaining activity at 10 µM", "setting": "PKCa; [3]", "result": 98, "unit": "%"},
      {"measurement": "remaining activity at 10 µM", "setting": "PKCb1; [1]", "result": 97.8, "unit": "%"},
      {"measurement": "remaining activity at 10 µM", "setting": "PKCb1; [2]", "result": 96.7, "unit": "%"},
      {"measurement": "remaining activity at 10 µM", "setting": "PKCb1; [3]", "result": 98.9, "unit": "%"},
      {"measurement": "remaining activity at 10 µM", "setting": "TNK1; [1]", "result": 98.8, "unit": "%"},
      {"measurement": "remaining activity at 10 µM", "setting": "TNK1; [2]", "result": 100, "unit": "%"},
      {"measurement": "remaining activity at 10 µM", "setting": "TNK1; [3]", "result": 97.2, "unit": "%"},
      {"measurement": "remaining activity at 10 µM", "setting": "CAMK1b; [1]", "result": 96.4, "unit": "%"},
      {"measurement": "remaining activity at 10 µM", "setting": "CAMK1b; [2]", "result": 97.1, "unit": "%"},
      {"measurement": "remaining activity at 10 µM", "setting": "CAMK1b; [3]", "result": 95.8, "unit": "%"},
      {"measurement": "remaining activity at 10 µM", "setting": "CAMK1g; [1]", "result": 82.4, "unit": "%"},
      {"measurement": "remaining activity at 10 µM", "setting": "CAMK1g; [2]", "result": 81.8, "unit": "%"},
      {"measurement": "remaining activity at 10 µM", "setting": "CAMK1g; [3]", "result": 83, "unit": "%"}
    ]}
  ]
}
